{
  "source": "patent US20250338849A1",
  "about": "(priority 2022, published 2025)",
  "assay_type_in_all_cases": "cell-based",
  "key": {"Pyricularia oryzae": {"system": "Pyricularia oryzae", "assay": "microbe, parasite or virus in culture", "settings": "for Observed efficacy: single active; for inhibition of growth at 4 ppm / inhibition of growth at 0.016 ppm / inhibition of growth at 0.063 ppm / inhibition of growth at 0.25 ppm / inhibition of growth at 1 ppm: Pyricularia oryzae, 168 h, read-out: Observed efficacy"}, "Septoria tritici": {"system": "Septoria tritici", "assay": "Activity against leaf blotch on wheat caused by Septoria tritici (microtiter plate)", "settings": "single active"}, "Botrytis cinerea": {"system": "Botrytis cinerea", "assay": "Activity against the grey mold Botrytis cinerea in the microtiterplate test", "settings": "single active"}, "[1]": {"settings": "Zymoseptoria tritici, 168 h, 0.25 ppm, read-out: Observed efficacy"}, "[2]": {"settings": "Zymoseptoria tritici, 168 h, read-out: Observed efficacy"}, "[3]": {"settings": "Botrytis cinerea, 168 h, read-out: Observed efficacy"}, "[4]": {"settings": "Zymoseptoria tritici, 168 h, 0.016 ppm, read-out: Observed efficacy"}, "[5]": {"settings": "Zymoseptoria tritici, 168 h, 0.063 ppm, read-out: Observed efficacy"}, "[6]": {"settings": "Botrytis cinerea, 168 h, 0.063 ppm, read-out: Observed efficacy"}},
  "data": [
    {"smiles": "O=C(NC1CCC1c1ccc(Cl)cc1Cl)c1cccnc1C(F)(F)F", "note": "(stereo in doubt) [Cyclobutrifuram, cyclobutrifluram]", "values": [
      {"measurement": "Observed efficacy", "setting": "Pyricularia oryzae; 1 ppm", "result": 14, "unit": "%"},
      {"measurement": "Observed efficacy", "setting": "Septoria tritici; 0.25 ppm", "result": 34, "unit": "%"}
    ]},
    {"smiles": "CO/C=C(/C(=O)OC)c1ccccc1Oc1cc(Oc2ccccc2C#N)ncn1", "note": "[Azoxystrobin, azoxystrobin]", "values": [
      {"measurement": "Observed efficacy", "setting": "Pyricularia oryzae; 0.016 ppm", "result": 59, "unit": "%"},
      {"measurement": "Observed efficacy", "setting": "Septoria tritici; 0.016 ppm", "result": 3, "unit": "%"},
      {"measurement": "Observed efficacy", "setting": "Septoria tritici; 0.063 ppm", "result": 43, "unit": "%"}
    ]},
    {"smiles": "O=C(Nc1ccccc1-c1ccc(Cl)cc1)c1cccnc1Cl", "note": "[Boscalid, boscalid]", "values": [
      {"measurement": "inhibition of growth at 4 ppm", "setting": "Pyricularia oryzae", "result": 12, "unit": "%"},
      {"measurement": "inhibition of growth at 0.25 ppm", "setting": "Septoria tritici; [1]", "result": 21, "unit": "%"},
      {"measurement": "inhibition of growth at 1 ppm", "setting": "Septoria tritici; [2]", "result": 62, "unit": "%"},
      {"measurement": "inhibition of growth at 1 ppm", "setting": "Botrytis cinerea; [3]", "result": 76, "unit": "%"}
    ]},
    {"smiles": "Cc1cc(C2=NC(C)(C)Oc3c2ccc(F)c3F)cnc1C(F)F", "note": "[Compound 1-1]", "values": [
      {"measurement": "inhibition of growth at 0.016 ppm", "setting": "Pyricularia oryzae", "result": 8, "unit": "%"},
      {"measurement": "inhibition of growth at 0.063 ppm", "setting": "Pyricularia oryzae", "result": 10, "unit": "%"},
      {"measurement": "inhibition of growth at 0.25 ppm", "setting": "Pyricularia oryzae", "result": 21, "unit": "%"},
      {"measurement": "inhibition of growth at 1 ppm", "setting": "Pyricularia oryzae", "result": 65, "unit": "%"},
      {"measurement": "inhibition of growth at 0.004 ppm", "setting": "Septoria tritici; Zymoseptoria tritici, 168 h, 0.004 ppm, read-out: Observed efficacy", "result": 4, "unit": "%"},
      {"measurement": "inhibition of growth at 0.016 ppm", "setting": "Septoria tritici; [4]", "result": 3, "unit": "%"},
      {"measurement": "inhibition of growth at 0.063 ppm", "setting": "Septoria tritici; [5]", "result": 10, "unit": "%"},
      {"measurement": "inhibition of growth at 0.25 ppm", "setting": "Septoria tritici; [1]", "result": 22, "unit": "%"},
      {"measurement": "inhibition of growth at 1 ppm", "setting": "Botrytis cinerea; [3]", "result": 33, "unit": "%"}
    ]},
    {"smiles": "Cc1cc(C2=NC(C)(C)Oc3c(F)cccc32)cnc1C(F)F", "note": "[Compound 1-2]", "values": [
      {"measurement": "inhibition of growth at 0.063 ppm", "setting": "Pyricularia oryzae", "result": 4, "unit": "%"},
      {"measurement": "inhibition of growth at 0.25 ppm", "setting": "Pyricularia oryzae", "result": 15, "unit": "%"},
      {"measurement": "inhibition of growth at 1 ppm", "setting": "Pyricularia oryzae", "result": 31, "unit": "%"},
      {"measurement": "inhibition of growth at 0.25 ppm", "setting": "Septoria tritici; [1]", "result": 0, "unit": "%"},
      {"measurement": "inhibition of growth at 1 ppm", "setting": "Septoria tritici; [2]", "result": 0, "unit": "%"},
      {"measurement": "inhibition of growth at 1 ppm", "setting": "Botrytis cinerea; [3]", "result": 19, "unit": "%"}
    ]},
    {"smiles": "COc1ccc2c(c1F)OC(C)(C)N=C2c1cnc(C(F)F)c(C)c1", "note": "[Compound 1-3]", "values": [
      {"measurement": "inhibition of growth at 0.063 ppm", "setting": "Pyricularia oryzae", "result": 0, "unit": "%"},
      {"measurement": "inhibition of growth at 1 ppm", "setting": "Pyricularia oryzae", "result": 12, "unit": "%"},
      {"measurement": "inhibition of growth at 0.063 ppm", "setting": "Septoria tritici; [5]", "result": 21, "unit": "%"},
      {"measurement": "inhibition of growth at 0.25 ppm", "setting": "Septoria tritici; [1]", "result": 20, "unit": "%"},
      {"measurement": "inhibition of growth at 1 ppm", "setting": "Septoria tritici; [2]", "result": 18, "unit": "%"},
      {"measurement": "inhibition of growth at 1 ppm", "setting": "Botrytis cinerea; [3]", "result": 12, "unit": "%"}
    ]},
    {"smiles": "CC1COC(Cn2cncn2)(c2ccc(Oc3ccc(Cl)cc3)cc2Cl)O1", "note": "(stereo not drawn) [Difenoconazol, difenoconazole]", "values": [
      {"measurement": "inhibition of growth at 0.063 ppm", "setting": "Botrytis cinerea; [6]", "result": 8, "unit": "%"}
    ]},
    {"smiles": "CNC(=O)/C(=N/OC)c1ccccc1COc1cc(C)ccc1C", "note": "[Dimoxystrobin, dimoxystrobin]", "values": [
      {"measurement": "Observed efficacy", "setting": "Botrytis cinerea; 0.25 ppm", "result": 2, "unit": "%"}
    ]},
    {"smiles": "COc1ccnc(C(=O)N[C@@H](C)C(=O)O[C@@H](C)C(c2ccc(F)cc2)c2ccc(F)cc2)c1OC(C)=O", "note": "[Florylpicoxamid, florylpicoxamid]", "values": [
      {"measurement": "Observed efficacy", "setting": "Pyricularia oryzae; 0.004 ppm", "result": 28, "unit": "%"},
      {"measurement": "Observed efficacy", "setting": "Pyricularia oryzae; 0.016 ppm", "result": 70, "unit": "%"},
      {"measurement": "Observed efficacy", "setting": "Septoria tritici; 0.016 ppm", "result": 47, "unit": "%"}
    ]},
    {"smiles": "O=[N+]([O-])c1cc(C(F)(F)F)c(Cl)c([N+](=O)[O-])c1Nc1ncc(C(F)(F)F)cc1Cl", "note": "[Fluazinam, fluazinam]", "values": [
      {"measurement": "inhibition of growth at 0.063 ppm", "setting": "Pyricularia oryzae", "result": 19, "unit": "%"},
      {"measurement": "inhibition of growth at 0.063 ppm", "setting": "Septoria tritici; [5]", "result": 5, "unit": "%"}
    ]},
    {"smiles": "N#Cc1c[nH]cc1-c1cccc2c1OC(F)(F)O2", "note": "[Fludioxonil, fludioxonil]", "values": [
      {"measurement": "inhibition of growth at 0.016 ppm", "setting": "Pyricularia oryzae", "result": 14, "unit": "%"},
      {"measurement": "inhibition of growth at 0.063 ppm", "setting": "Pyricularia oryzae", "result": 45, "unit": "%"},
      {"measurement": "inhibition of growth at 0.25 ppm", "setting": "Pyricularia oryzae", "result": 69, "unit": "%"},
      {"measurement": "inhibition of growth at 0.016 ppm", "setting": "Septoria tritici; [4]", "result": 1, "unit": "%"}
    ]},
    {"smiles": "O=C(NCCc1ncc(C(F)(F)F)cc1Cl)c1ccccc1C(F)(F)F", "note": "[Fluopyram, fluopyram]", "values": [
      {"measurement": "inhibition of growth at 0.25 ppm", "setting": "Septoria tritici; [1]", "result": 33, "unit": "%"}
    ]},
    {"smiles": "Cn1cc(C(=O)Nc2ccccc2-c2cc(F)c(F)c(F)c2)c(C(F)F)n1", "note": "[Fluxapyroxad, fluxapyroxad]", "values": [
      {"measurement": "Observed efficacy", "setting": "Septoria tritici; 0.063 ppm", "result": 27, "unit": "%"},
      {"measurement": "Observed efficacy", "setting": "Botrytis cinerea; 0.063 ppm", "result": 29, "unit": "%"}
    ]},
    {"smiles": "CC(C)NC(=O)N1CC(=O)N(c2cc(Cl)cc(Cl)c2)C1=O", "note": "[Iprodion, iprodione]", "values": [
      {"measurement": "inhibition of growth at 4 ppm", "setting": "Pyricularia oryzae", "result": 42, "unit": "%"},
      {"measurement": "inhibition of growth at 1 ppm", "setting": "Septoria tritici; [2]", "result": 9, "unit": "%"},
      {"measurement": "inhibition of growth at 1 ppm", "setting": "Botrytis cinerea; [3]", "result": 52, "unit": "%"}
    ]},
    {"smiles": "Cc1cc(OC(C)C)ccc1C(=O)C(C)(C)NC(=O)c1sccc1C", "note": "[Isofetamid, isofetamid]", "values": [
      {"measurement": "Observed efficacy", "setting": "Pyricularia oryzae; 4 ppm", "result": 15, "unit": "%"},
      {"measurement": "Observed efficacy", "setting": "Septoria tritici; 0.25 ppm", "result": 45, "unit": "%"}
    ]},
    {"smiles": "Cc1cccc(-n2nnn(C)c2=O)c1COc1ccn(-c2ccc(Cl)cc2)n1", "note": "[Methyltetraprol, metyltetraprole]", "values": [
      {"measurement": "Observed efficacy", "setting": "Pyricularia oryzae; 0.016 ppm", "result": 38, "unit": "%"},
      {"measurement": "Observed efficacy", "setting": "Septoria tritici; 0.016 ppm", "result": 51, "unit": "%"}
    ]},
    {"smiles": "CC(C)CC(C)c1sccc1NC(=O)c1cn(C)nc1C(F)(F)F", "note": "(stereo not drawn) [Penthiopyrad, penthiopyrad]", "values": [
      {"measurement": "inhibition of growth at 0.063 ppm", "setting": "Septoria tritici; [5]", "result": 33, "unit": "%"},
      {"measurement": "inhibition of growth at 0.063 ppm", "setting": "Botrytis cinerea; [6]", "result": 10, "unit": "%"}
    ]},
    {"smiles": "OC(Cc1ccccc1Cl)(Cn1nc[nH]c1=S)C1(Cl)CC1", "note": "(stereo not drawn) [Prothioconazol, prothioconazole]", "values": [
      {"measurement": "inhibition of growth at 1 ppm", "setting": "Pyricularia oryzae", "result": 15, "unit": "%"},
      {"measurement": "inhibition of growth at 0.25 ppm", "setting": "Septoria tritici; [1]", "result": 66, "unit": "%"},
      {"measurement": "inhibition of growth at 1 ppm", "setting": "Botrytis cinerea; [3]", "result": 22, "unit": "%"},
      {"measurement": "inhibition of growth at 4 ppm", "setting": "Botrytis cinerea; Botrytis cinerea, 168 h, 4 ppm, read-out: Observed efficacy", "result": 58, "unit": "%"}
    ]},
    {"smiles": "CON(C(=O)c1cn(C)nc1C(F)F)C(C)Cc1c(Cl)cc(Cl)cc1Cl", "note": "(stereo not drawn) [Pydiflumetofen, pydiflumetofen]", "values": [
      {"measurement": "Observed efficacy", "setting": "Septoria tritici; 0.016 ppm", "result": 67, "unit": "%"},
      {"measurement": "Observed efficacy", "setting": "Botrytis cinerea; 0.063 ppm", "result": 15, "unit": "%"}
    ]},
    {"smiles": "CC(C)(C)C(O)(CCc1ccc(Cl)cc1)Cn1cncn1", "note": "(stereo not drawn) [Tebuconazol, tebuconazole]", "values": [
      {"measurement": "inhibition of growth at 0.25 ppm", "setting": "Pyricularia oryzae", "result": 10, "unit": "%"},
      {"measurement": "inhibition of growth at 0.25 ppm", "setting": "Septoria tritici; [1]", "result": 50, "unit": "%"},
      {"measurement": "inhibition of growth at 0.25 ppm", "setting": "Botrytis cinerea; Botrytis cinerea, 168 h, 0.25 ppm, read-out: Observed efficacy", "result": 38, "unit": "%"}
    ]},
    {"smiles": "Cc1ccc(NC(=O)c2snnc2C)cc1Cl", "note": "[Tiadinil, tiadinil]", "values": [
      {"measurement": "inhibition of growth at 4 ppm", "setting": "Septoria tritici; Zymoseptoria tritici, 168 h, 4 ppm, read-out: Observed efficacy", "result": 10, "unit": "%"}
    ]}
  ]
}
